Assay results reported in patent US20260008775A1, “AZOLE MODULATORS OF CHOLESTEROL BIOSYNTHESIS AND THEIR USE FOR PROMOTING REMYELINATION” (GENENTECH, INC., priority 2022, published 2026).
pEC50, pKi: −log10 of the molar value.

Experiments:
[1] = biological target: human emopamil binding protein and human 7-dehydrocholesterol reductase (hEBP-DHCR7) (Homo sapiens (Human), UniProt Q15125); test: hEBP-DHCR7 radioligand binding assay (filter binding, membranes of co-expressing HEK293 cells); conditions: competition with [3H] radioligand, 8 doses 0.06 to 5000 nM, Ki calculated from IC50
Summary of the method: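 Compound, either single dose 1 μM or eight 5-fold dilutions from 0.06 to 5000 nM, competed with a [3H]-labelled ligand added at 25 nM for binding to co-expressing HEK293 membranes. IC50 came from nonlinear regression, with full block and DMSO as controls, then Cheng–Prusoff conversion to Ki.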

[2] = tested on: zymostenol accumulation (EBP) in EpiSC-derived OPCs; test: GC/MS-based sterol profiling, zymostenol accumulation in EpiSC-derived OPCs; type: cell-based, mouse; conditions: Mus musculus, 24 h, EpiSC-derived OPCs, 24 hr, 8 doses from 0.15 nM to 333 nM; read-out: Mouse Zymostenol GCMS EC50
Summary of the method: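 Zymostenol level is expressed relative to that after 24 h with 100 nM positive-control reference, measured by full-scan GC/MS (m/z 458) with cholesterol-d7 internal standard after BSTFA derivatisation. Cells were EpiSC-derived OPCs, 100,000/well in N2B27 without growth factors, treated 24 h, from two or more independent platings.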

EpiSC-derived OPCs = test: In vitro phenotypic screening of OPCs, MBP high-content imaging (percentage of oligodendrocytes); type: cell-based, mouse; conditions: Mus musculus, 72 h, 3 days, MBP stain, dose-response 0.5 nM to 1000 nM; read-out: OPC EC50
Summary of the method: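 EC50 was fitted by Hill equation to the MBP-positive oligodendrocyte percentage from imaging of fixed, MBP- and DAPI-stained cells. Treatment lasted 3 days at 37 °C, final doses 0.5–1000 nM over 8 points, in growth factor-free N2B27. Cells were EpiSC-derived OPCs, tested in at least two independent platings.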

human emopamil binding protein and human 7-dehydrocholesterol reductase (hEBP-DHCR7), sequence (Q15125 whole entry): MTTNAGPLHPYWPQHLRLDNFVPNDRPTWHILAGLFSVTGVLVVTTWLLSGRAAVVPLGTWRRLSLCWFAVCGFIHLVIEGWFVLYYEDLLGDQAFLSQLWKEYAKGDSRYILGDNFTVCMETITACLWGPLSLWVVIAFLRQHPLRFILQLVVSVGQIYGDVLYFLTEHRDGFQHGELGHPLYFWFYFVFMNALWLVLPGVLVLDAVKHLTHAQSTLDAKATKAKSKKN

| Structure (SMILES) | pKi [1] | pEC50 [2] | pEC50 (EpiSC-derived OPCs) |
| --- | --- | --- | --- |
| CC(C)n1nc(-c2cccc(C(F)(F)F)n2)nc1[C@H]1[C@@H]2C[C@@H](N3CCOC[C@H]3C)C[C@@H]21 [Compound 72, (R)-4-((1R,3s,5S,6R)-6-(1-Isopropyl-3-(6-(trifluoromethyl)pyridin-2-yl)-1H-1,2,4-triazol-5-yl)bicyclo[3.1.0]hexan-3-yl)-3-methylmorpholine] | 5.93 | 6.48 | 6.01 |
| CC(C)n1nc(-c2cccc(C(F)(F)F)n2)nc1[C@H]1[C@@H]2C[C@H](N3CCOC[C@H]3C)C[C@@H]21 [Compound 73, (R)-4-((1R,3r,5S,6R)-6-(1-isopropyl-3-(6-(trifluoromethyl)pyridin-2-yl)-1H-1,2,4-triazol-5-yl)bicyclo[3.1.0]hexan-3-yl)-3-methylmorpholine] | 6.96 | 8.40 | 8.08 |
| CC(C)n1nc(-c2cccc(OC(F)F)c2)nc1[C@H]1[C@@H]2C[C@H](N3CCOC[C@H]3C)C[C@@H]21 [Compound 76, (R)-4-((1R,3r,5S,6R)-6-(3-(3-(Difluoromethoxy)phenyl)-1-isopropyl-1H-1,2,4-triazol-5-yl)bicyclo[3.1.0]hexan-3-yl)-3-methylmorpholine] | 7.82 | 8.93 | 8.81 |
| COCCN1CCN([C@H]2CC[C@@H](c3nc(-c4ccc(C(F)(F)F)nc4)nn3C(C)C)C2)CC1 [Compound 83, 1-((1S,3R)-3-(1-Isopropyl-3-(6-(trifluoromethyl)pyridin-3-yl)-1H-1,2,4-triazol-5-yl)cyclopentyl)-4-(2-methoxyethyl) piperazine] | 7.96 | 7.90 | 7.11 |
| CC(C)n1nc(-c2cnc(C(F)(F)F)nc2)nc1[C@H]1CC[C@@H](N2CCOCC2)C1 [Compound 95, 4-((1R,3S)-3-(1-Isopropyl-3-(2-(trifluoromethyl)pyrimidin-5-yl)-1H-1,2,4-triazol-5-yl)cyclopentyl)morpholine] | 7.48 | 7.69 | 6.87 |
| CC(C)n1nc(-c2cnc(C(F)(F)F)nc2)cc1[C@H]1[C@@H]2C[C@H](N3CCOC[C@H]3C)C[C@@H]21 [Compound 97, (R)-4-((1R,3r,5S,6R)-6-(1-Isopropyl-3-(2-(trifluoromethyl)pyrimidin-5-yl)-1H-pyrazol-5-yl)bicyclo[3.1.0]hexan-3-yl)-3-methylmorpholine] | 7.82 | 8.41 | 7.94 |
| CC(C)n1nc(-c2ccnc(C(F)(F)F)n2)cc1[C@H]1[C@@H]2C[C@@H](N3CCOCC3)C[C@@H]21 [Compound 98, 4-((1R,3s,5S,6r)-6-(1-Isopropyl-3-(2-(trifluoromethyl)pyrimidin-4-yl)-1H-pyrazol-5-yl)bicyclo[3.1.0]hexan-3-yl)morpholine] | 7.93 | 8.31 | 7.51 |
| CC(C)n1nc(-c2ccnc(C(F)(F)F)n2)cc1[C@H]1[C@@H]2C[C@H](N3CCOC[C@@H]3C)C[C@@H]21 [Compound 101, (S)-4-((1R,3r,5S,6S)-6-(1-Isopropyl-3-(2-(trifluoromethyl)pyrimidin-4-yl)-1H-pyrazol-5-yl)bicyclo[3.1.0]hexan-3-yl)-3-methylmorpholine] | 8.14 | 8.96 | 8.69 |
| CC(C)n1nc(-c2ccnc(C(F)(F)F)n2)cc1[C@H]1[C@@H]2C[C@H](N3CCOC[C@H]3C)C[C@@H]21 [Compound 103, (R)-4-((1R,3r,5S,6S)-6-(1-Isopropyl-3-(2-(trifluoromethyl)pyrimidin-4-yl)-1H-pyrazol-5-yl)bicyclo[3.1.0]hexan-3-yl)-3-methylmorpholine] | 7.44 | 8.03 | 7.03 |
| CC(C)n1nc(-c2ccc(C(F)(F)F)nc2)nc1[C@@H]1CC[C@@H](N2CCOCC2)C1 [Compound 104, 4-((1R,3R)-3-(1-Isopropyl-3-(6-(trifluoromethyl)pyridin-3-yl)-1H-1,2,4-triazol-5-yl)cyclopentyl)morpholine] | 7.72 | 7.28 | 6.36 |
| CC(C)n1nc(-c2ccc(C(F)(F)F)nc2)nc1[C@@H]1CC[C@H](N2CCOCC2)C1 [Compound 105, 4-((1S,3R)-3-(1-Isopropyl-3-(6-(trifluoromethyl)pyridin-3-yl)-1H-1,2,4-triazol-5-yl)cyclopentyl)morpholine] | 8.05 | 8.50 | 7.93 |
| CC(C)n1nc(-c2cc(C(F)(F)F)ncn2)cc1[C@H]1[C@@H]2C[C@H](N3CCOC[C@H]3C)C[C@@H]21 [Compound 106, (R)-4-((1R,3r,5S,6R)-6-(1-Isopropyl-3-(6-(trifluoromethyl)pyrimidin-4-yl)-1H-pyrazol-5-yl)bicyclo[3.1.0]hexan-3-yl)-3-methylmorpholine] | 7.82 | 8.41 | 7.94 |
| CC(C)n1nc(-c2cncc(C(F)(F)F)n2)cc1[C@H]1[C@@H]2C[C@@H](N3CCOCC3)C[C@@H]21 [Compound 107, 4-((1R,3s,5S,6r)-6-(1-Isopropyl-3-(6-(trifluoromethyl)pyrazin-2-yl)-1H-pyrazol-5-yl)bicyclo[3.1.0]hexan-3-yl)morpholine] | 7.93 | 8.31 | 7.51 |
| CC(C)n1nc(-c2cncc(C(F)(F)F)c2)nc1[C@H]1[C@@H]2C[C@H](N3CCOC[C@H]3C)C[C@@H]21 [Compound 120, (R)-4-((1R,3r,5S,6R)-6-(1-Isopropyl-3-(5-(trifluoromethyl)pyridin-3-yl)-1H-1,2,4-triazol-5-yl)bicyclo[3.1.0]hexan-3-yl)-3-methylmorpholine] | 7.80 | 8.90 | 8.55 |
| CC[C@@H]1CN([C@@H]2CC[C@H](c3nc(-c4ccc(C(F)(F)F)nc4)nn3C(C)C)C2)CCO1 [Compound 127, (R)-2-Ethyl-4-((1R,3S)-3-(1-isopropyl-3-(6-(trifluoromethyl)pyridin-3-yl)-1H-1,2,4-triazol-5-yl)cyclopentyl)morpholine] | 7.24 | 8.88 | 8.22 |
| CC(C)n1nc(-c2cnc(C(F)(F)F)nc2)nc1[C@H]1CC[C@@H](N2CCO[C@H](C)C2)C1 [Compound 144, (R)-4-((1R,3S)-3-(1-isopropyl-3-(2-(trifluoromethyl)pyrimidin-5-yl)-1H-1,2,4-triazol-5-yl)cyclopentyl)-2-methylmorpholine] | 6.49 | 8.24 | 7.32 |
| CC[C@@H]1CN([C@H]2CC[C@@H](c3nc(-c4cnc(C(F)(F)F)nc4)nn3C(C)C)C2)CCO1 [Compound 152, (R)-2-Ethyl-4-((1S,3R)-3-(1-isopropyl-3-(2-(trifluoromethyl)pyrimidin-5-yl)-1H-1,2,4-triazol-5-yl)cyclopentyl)morpholine] | 5.47 | 8.67 | 7.77 |
| CC(C)n1nc(-c2ccc(C(F)(F)F)c(F)c2)nc1[C@H]1CC[C@@H](N2CCO[C@H](CF)C2)C1 [Compound 160, (S)-4-((1R,3S)-3-(3-(3-Fluoro-4-(trifluoromethyl)phenyl)-1-isopropyl-1H-1,2,4-triazol-5-yl)cyclopentyl)-2-(fluoromethyl)morpholine] | 7.49 | 8.99 | 7.49 |
| CC(C)n1nc(-c2cnc(C(F)(F)F)nc2)nc1[C@H]1CC[C@@H](N2CCO[C@H](CF)C2)C1 [Compound 161, (S)-2-(Fluoromethyl)-4-((1R,3S)-3-(1-isopropyl-3-(2-(trifluoromethyl)pyrimidin-5-yl)-1H-1,2,4-triazol-5-yl)cyclopentyl)morpholine] | 7.05 | 7.62 | 7.05 |
| CC(C)n1nc(-c2cncc(C(F)(F)F)c2)nc1[C@H]1[C@@H]2C[C@@H](N3CCO[C@H](C)C3)C[C@@H]21 [Compound 162, (R)-4-((1R,3s,5S,6R)-6-(1-Isopropyl-3-(5-(trifluoromethyl)pyridin-3-yl)-1H-1,2,4-triazol-5-yl)bicyclo[3.1.0]hexan-3-yl)-2-methylmorpholine] | 6.08 | 6.43 | 6.08 |
| CC(C)n1nc(-c2cncc(C(F)(F)F)c2)nc1[C@H]1[C@@H]2C[C@H](N3CCO[C@H](C)C3)C[C@@H]21 [Compound 163, (R)-4-((1R,3r,5S,6R)-6-(1-Isopropyl-3-(5-(trifluoromethyl)pyridin-3-yl)-1H-1,2,4-triazol-5-yl)bicyclo[3.1.0]hexan-3-yl)-2-methylmorpholine] | 7.48 | 8.36 | 7.48 |
| CC(C)n1nc(-c2cccc(C(F)(F)F)c2)cc1[C@H]1[C@@H]2C[C@H](N3CCOCC3)C[C@@H]21 [Compound 170, 4-((1R,3r,5S,6r)-6-(1-Isopropyl-3-(3-(trifluoromethyl)phenyl)-1H-pyrazol-5-yl)bicyclo[3.1.0]hexan-3-yl)morpholine] | 8.16 | 8.53 | 8.27 |
| CC(C)n1nc(-c2ccnc(C(F)(F)F)c2)cc1[C@H]1[C@@H]2C[C@H](N3CCOCC3)C[C@@H]21 [Compound 172, 4-((1R,3r,5S,6r)-6-(1-Isopropyl-3-(2-(trifluoromethyl)pyridin-4-yl)-1H-pyrazol-5-yl)bicyclo[3.1.0]hexan-3-yl)morpholine] | 7.87 | 8.40 | 8.08 |
